Where two headings read alike, the source gives them in different places. Where only a bound is given, the exact number is not on record here.

Consider two compounds from patent US11352350B2, “IRAK degraders and uses thereof” (Kymera Therapeutics, Inc., priority 2018, dated 2022).

The subject of assay [1] is OCI-LY10 cells. Briefly: In vitro combination studies in OCI-LY10 (Chou-Talalay). Format: cell-based, human. The method, then: The ABC-DLBCL cell line OCI-LY10 was MV4-11 cells were maintained in IMDM (Invitrogen, supplemented with 20% heat inactivated fetal bovine serum (Life Technologies, Grand Island, N.Y) plus+BME. Cultures were maintained in a humidified atmosphere including 5% CO2. Studies were performed using OCI-LY10 cells in vitro to evaluate the anti-proliferative effect of a combination of two agents together on cell growth. The cell counts were measured by ATP quantitation using the Promega Cell Titer Glo kit and luminescence values corresponded to the amount of ATP in a given well. Compounds evaluated for synergy were tested in a range which was bracketed around the IC50's. The compounds were plated to a 384 well plate in a matrix format which includes increasing concentrations of each drug in the combination in a constant ratio, in addition to the effect of each compound alone in the study. […] DMSO concentration was less than 0.2% v/v.
The drug combination analysis was performed utilizing the Chou-Talalay method [Chou TC Pharmacological Reviews 2006]. Maximum and minimum inhibition (DMSO alone) controls were used in each plate to calculate fraction affected (Fa) of a test well. […] Synergy was determined using the software package Calcusyn by Biosoft. Graphs representing values of combination index (CI) versus Fractional effect (Fa) known as Fa-CI plots were generated and synergy was evaluated.

The target in assay [2] is T1, IRAK4 (Homo sapiens (Human), UniProt Q9NWZ3). Briefly: IRAK4 WB degradation (DC50). Format: cell-based.
The test system of assay [3] is SU-DHL6. Briefly: SU-DHL6 viability, CTG. The assay is classed as cell-based. The note with it: Homo sapiens, SU-DHL-6.
Assay [4] addresses T1, IRAK4. Briefly: IRAK4 quantification in xenograft tumors by UPLC-MS/MS (tumor PD). As to conditions: OCI-LY10 xenograft-bearing mice, oral dosing; FIG. 14. Format: in vivo, mouse. The procedure:
At termination: At pre-determined time points based on study design, animals were humanely sacrificed by CO2. Blood was obtained by cardiac puncture for isolation of plasma, any residual tumor was removed and divided in 2 portions, 1 (minimal) for terminal compound exposure and 1 to determine IRAK4 and actin. Compound was determined in tumor and plasma using LC/MS with calibrated standards.
Interleukin-1 receptor-associated kinase 4 (IRAK4) was quantified in human OCI-LY10 and TMD8 xenograft tumors, together with mouse splenocytes and peripheral blood mononuclear cells (PBMCs), by ultra-performance liquid chromatography-tandem mass spectrometry (UPLC-MS/MS). The concentrations of IRAK4 were normalized by the concentrations of actin in the respective samples. […]
Signature peptide concentrations were quantitated using a sensitive and specific targeted LC-MS/MS method. […]
Signature peptide levels (LAVAIK, […]) were quantified by UPLC-MS/MS. […] A SCIEX TripleTOF 6600 LC-MS/MS system was used for the detection and quantitation of analytes. The intensities of the analytes and ISs were determined by integration of extracted ion peak areas using Analyst and MultiQuant 3.0 software. […] Measured peptide levels were corrected for sample work up and converted to actual protein concentrations in ng/mg total protein of cell lysate. […]

T1 sequence (Q9NWZ3 whole entry): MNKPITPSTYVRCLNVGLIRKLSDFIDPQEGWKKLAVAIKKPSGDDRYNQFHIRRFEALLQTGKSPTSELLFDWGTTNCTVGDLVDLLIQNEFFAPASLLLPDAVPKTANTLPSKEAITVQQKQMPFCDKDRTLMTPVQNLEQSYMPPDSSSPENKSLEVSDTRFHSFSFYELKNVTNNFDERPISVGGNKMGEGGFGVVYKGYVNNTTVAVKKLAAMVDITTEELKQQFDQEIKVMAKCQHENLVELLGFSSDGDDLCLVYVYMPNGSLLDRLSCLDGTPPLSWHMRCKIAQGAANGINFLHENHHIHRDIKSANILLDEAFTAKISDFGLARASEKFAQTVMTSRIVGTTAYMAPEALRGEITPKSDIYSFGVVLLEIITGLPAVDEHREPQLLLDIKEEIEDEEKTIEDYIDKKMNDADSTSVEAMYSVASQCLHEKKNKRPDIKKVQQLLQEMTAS

Consider `CN(CCCOCCCc1cccc2c1n(C)c(=O)n2C1CCC(=O)NC1=O)C[C@H]1CC[C@H](n2cc(NC(=O)c3coc(-c4ccnc(NCC5CC5)c4)n3)c(C(F)F)n2)CC1` (mixture of isomers) [I-30, 2-[2-(Cyclopropylmethylamino)-4-pyridyl]-N-[3-(difluoromethyl)-1-[4-[[3-[3-[1-(2,6-dioxo-3-piperidyl)-3-methyl-2-oxo-benzimidazol-4-yl]propoxy]propyl-methyl-amino]methyl]cyclohexyl]pyrazol-4-yl] oxazole-4-carboxamide], for which, in assay [1] (OCI-LY10 bearing MYD88 L265P and CD79 mutations, within 72 h, FIG. 12), the “apoptosis, combined with a BTK inhibitor” value is recorded as “greater than additive increase in apoptosis”. For the same compound, the “synergy with BTK inhibition vs cell viability” value in assay [1] (four day Cell Titer Glo read out) is listed as “synergistic”.
`CN(C[C@H]1CC[C@H](n2cc(NC(=O)c3coc(-c4ccnc(NCC5CC5)c4)n3)c(C(F)F)n2)CC1)C1CCN(Cc2cccc3c2n(C)c(=O)n3C2CCC(=O)NC2=O)CC1` (stereo partly drawn) [I-75, 2-(2-((cyclopropylmethyl)amino)pyridin-4-yl)-N-(3-(difluoromethyl)-1-((1r,4r)-4-(((1-((1-(2,6-dioxopiperidin-3-yl)-3-methyl-2-oxo-2,3-dihydro-1H-benzo[d]imidazol-4-yl)methyl)piperidin-4-yl)(methyl)amino)methyl)cyclohexyl)-1H-pyrazol-4-yl)oxazole-4-carboxamide]: the DC50 in assay [2] stood at 23 nM. Further, the IC50 in assay [3] (MYD88 WT Lines, read-out: SU-DHL6 Viability, CTG IC50) was 1600 nM; in assay [3] (MYD88 WT, read-out: SU-DHL6 CTG IC50), 1600 nM. In addition, the “degradation of IRAK4 correlating with tumor regression” value in assay [4] is given as greater than 75%.
